Patent US20160137639A1, “TRIAZOLE-ISOXAZOLE COMPOUND AND MEDICAL USE THEREOF” (JAPAN TOBACCO INC., priority 2012, published 2016)
Like-named read-outs stand apart in the source and are kept apart here.

Key:
[1] = molecular target: T1, mouse RORγ (Mus musculus, UniProt P51450); experiment: Luciferase reporter gene assay of inhibitory effect against RORγ transcriptional activity (GAL4-mRORγ plasmid in CHO cells); format: cell-based
T1 construct: mouse, NM_011281.2 and from Ile251 to Lys516; expressed in transfected cells; host or cells: CHO cells (transient co-transfection with pG5-Luc reporter)
T1 sequence (P51450 251-516): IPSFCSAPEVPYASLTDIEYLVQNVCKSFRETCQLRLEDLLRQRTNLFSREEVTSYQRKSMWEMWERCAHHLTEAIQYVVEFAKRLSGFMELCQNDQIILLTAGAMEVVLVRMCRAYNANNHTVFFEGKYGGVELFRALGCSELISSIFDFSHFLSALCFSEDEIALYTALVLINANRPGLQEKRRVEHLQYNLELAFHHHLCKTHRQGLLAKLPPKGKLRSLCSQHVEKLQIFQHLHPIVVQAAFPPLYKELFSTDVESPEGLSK
Procedure, shortened: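 Readout is intracellular luciferase after 2-day compound exposure (8 concentrations, 0.1% DMSO) in CHO cells expressing GAL4 fused to mouse RORγ LBD residues Ile251–Lys516 plus pG5-Luc reporter. EC50 fitted from %-of-control; points showing resazurin-detected cytotoxicity dropped.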

[2] = molecular target: T2, human RORγ (Homo sapiens, UniProt P51449); experiment: Luciferase reporter gene assay of inhibitory effect against RORγ transcriptional activity (GAL4-hRORγ plasmid in CHO cells); format: cell-based
T2 construct: human, NM_005060.3 and from Ser253 to Lys518; expressed in transfected cells; host or cells: CHO cells (transient co-transfection with pG5-Luc reporter)
T2 sequence (P51449 253-518): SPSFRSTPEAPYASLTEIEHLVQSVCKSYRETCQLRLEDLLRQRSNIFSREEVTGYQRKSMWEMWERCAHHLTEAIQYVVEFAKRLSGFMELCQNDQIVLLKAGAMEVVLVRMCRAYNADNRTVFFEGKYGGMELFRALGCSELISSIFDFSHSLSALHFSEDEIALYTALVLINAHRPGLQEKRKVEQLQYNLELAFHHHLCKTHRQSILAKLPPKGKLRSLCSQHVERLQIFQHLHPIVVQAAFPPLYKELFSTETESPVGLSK

SMILES	EC50 ([1]; read-out: LUC EC50 mRORg) [µM]	EC50 ([2]; read-out: LUC EC50 hRORg) [µM]	EC50 ([1]; read-out: LUC EC50 (μM) mRORg) [µM]	EC50 ([2]; read-out: LUC EC50 (μM) hRORg) [µM]
COC1C[C@@H](C(=O)Nc2ccc(C)cc2C)[C@H](c2nnc([C@H]3C[C@@H](CC(C)C)C3)n2C2CC2)C1 (single isomer, unassigned) [Example F-557]	> 3	> 3		
Cc1ccc(NC(=O)C[C@@H](CCCO)c2nnc([C@H]3C[C@@H](CC(C)C)C3)n2C2CC2)c(C)c1 [Example F-510]	> 3	> 3		
CCc1cccc(NC(=O)CCc2nnc(CCC(C)C)n2C2CC2)c1C [Example F-147]			< 3	> 3
CCn1c(CCC(=O)NCc2cccc3ccccc23)nnc1C1Cc2ccccc2C1 [Example F-18]			< 3	< 3
Cc1ccc(NC(=O)CCc2nnc(CCC(C)C)n2C2CC2)cc1 [Example F-66]			> 3	> 3
Cc1ccc(NC(=O)CCc2nnc(CO)n2C2CC2)c(C)c1 [Example F-96]			> 3	> 3
Cc1ccc(NC(=O)CCc2noc([C@H]3C[C@@H](CC(C)(C)C)C3)c2COCC(=O)O)c(Cl)c1 [Example F-704]	> 3	> 3		
Cc1c(Cl)cccc1NC(=O)CCc1nnc(CCC(C)(C)C(=O)O)n1C1CC1 [Example F-226]			> 3	> 3
Cc1ccc(NC(=O)C[C@H](CCC(=O)O)c2noc([C@H]3C[C@@H](CC(C)(C)C)C3)c2C2CC2)c(C)n1 [Example F-673]	< 3	< 3		
Cc1ccc(NC(=O)C[C@H](CCCO)c2noc(-c3cn(CCC(C)(C)C)nc3C(F)(F)F)c2C2CC2)c(F)c1 [Example F-705]	> 3	> 3		
Cc1ccc(NCc2nnc(CCC(=O)Nc3cccc(Cl)c3C)n2C2CC2)c(C)c1 [Example F-206]			< 3	< 3
Cc1ccc(C(N)=O)cc1NC(=O)CCc1nnc(CCC(C)C)n1C1CC1 [Example F-154]			> 3	> 3
Cc1cc(Cl)ccc1NC(=O)C[C@H](CCO)c1nnc(C2CC3(CCC(F)(F)CC3)C2)n1C1CC1 [Example F-624]	< 3	< 3		
CC(=O)N1C[C@@H](C(=O)Nc2ccc(C)cc2C)[C@H](c2nnc(C3CC4(CCCCC4)C3)n2C2CC2)C1 [Example F-474]			< 3	> 3
Cc1c(Cl)cccc1NC(=O)CCc1nnc(CC(=O)OC(C)(C)C)n1C1CC1 [Example F-178]			< 3	< 3
Cc1ccc(NC(=O)[C@H]2CN(C(=O)CN(C)C)C[C@@H]2c2nnc([C@H]3C[C@@H](CC(C)(C)C)C3)n2C2CC2)c(C)c1 [Example F-648]	< 3	< 3		
Cc1c(Cl)cccc1NC(=O)CCc1nnc([C@H]2CC[C@H](C(C)C)CC2)n1C1CC1 [Example F-280]			< 3	< 3
Cc1ccc(NC(=O)CCc2nnc(CCC3CCCCC3)n2[C@@H]2C[C@H]2C)c(C)c1 (racemic) [Example F-141]			< 3	> 3
CC(=O)N1C[C@H](C(=O)Nc2ccc(C)cc2C)[C@@H](c2nnc(CCC3CC3(C)C)n2C2CC2)C1 (single isomer, unassigned) [Example F-328]			< 3	< 3
Cc1c(Cl)cccc1NC(=O)CCc1nnc(CC[C@H]2CC[C@H](C(F)(F)F)CC2)n1C1CC1 [Example F-250]			> 3	> 3
CNC(=O)C(C)(C)CCc1nnc(CCC(=O)Nc2cccc(Cl)c2C)n1C1CC1 [Example F-231]			> 3	> 3
COC(=O)C(C)(C)CCc1nnc(CCC(=O)Nc2cccc(Cl)c2C)n1C1CC1 [Example F-210]			< 3	< 3
